Experimental data as given in patent publication US20130065227A1, “METHODS OF INCREASING MACROPINOCYTOSIS IN CANCER CELLS” (priority 2010, published 2013).
Residues, ends and D or L forms follow the SMILES beside them. *: point of attachment. Cbz = O=C(OCc1ccccc1)*; CH2F = FC*

Experiments:
DU145 [1] = assay: Stimulation of macropinocytosis (dextran uptake); type: cell-based; details: 10 μM for 24, 48, or 72 h, flow cytometry
Description: (Panel A) DU145 cells were treated with 10 μM tAS1411 or 10 μM tCRO or no oligonucleotide in complete DMEM medium at 37° C. for the time indicated. After treatment, cell medium was changed for fresh complete medium containing 0.2 mg/ml dextran-10K labeled with Alexa Fluor 488, and cells were incubated for 30 min at 37° C. After incubation, cells were harvested and analyzed by flow cytometry to determine dextran uptake. (Panel B) The same experiment was performed using Hs27 cells. (Panel C) DU145 cells were treated with 10 μM tAS1411 or 10 μM tCRO or no oligonucleotide in complete DMEM medium at 37° C. for 48 h. After treatment, cell medium was changed for fresh complete medium containing 0.2 mg/ml dextran-10K tagged with Alexa Fluor 488, and cells were incubated for 30 min at 37° C. Then, cells were washed with cold PBS, added PBS containing 5 μg/ml PI and incubated on ice for 5 min. After washing with cold PBS, cells were fixed and the distribution of macropinocytic marker was visualized by confocal microscopy. The nucleus was stained with DAPI (blue). Scale bars, 10 μm. All experiments have been repeated at least three times. Data are mean of three independent samples; bars, SE; *(p<0.05).
FIG. 6 are graphs showing that nucleolin regulates AS1411-induced stimulation of macropinocytosis. DU145 cells were untreated (no transfection) or transfected, without siRNA (mock), or with 30 nM of one of three different nucleolin siRNAs (NCL1, NCL2, NCL3) or a control siRNA (scramble). 48 h after transfection, cells were incubated with 10 μM tAS1411, 10 μM tCRO, or no oligonucleotide in complete DMEM medium at 37° C. for 24 h. (Panel A) After treatment, cell medium was changed for fresh complete medium containing 0.2 mg/ml dextran-10K labeled with Alexa Fluor 488 (green) and incubated for 30 min at 37° C. (Panel B) After treatment, some cells were washed, fresh complete medium containing 10 μM FL-AS1411 added and incubated for 2 h at 37° C. After incubation, cells were harvested and analyzed by flow cytometry. Mean fluorescence was normalized to “not transfected” control (Panel A) or to no pre-treatment control (Panel B). All experiments have been repeated at least three times. Data are the mean of three independent samples; bars, SE; *(p<0.05).
FIG. 11 is a graph showing a comparison between AS1411 and tAS1411 in the ability to stimulate macropinocytosis. DU145 cells were plated 18 hr before treatment with different concentrations (0, 5, 10, or 15 μM) of AS1411, tAS1411 or tCRO in complete DMEM medium at 37° C. for 48 h. After treatment, cell medium was changed for fresh complete medium containing 0.2 mg/ml dextran-10K labeled with Alexa Fluor 488, and cells were incubated for 30 min at 37° C. After incubation, cells were incubated on ice with […] PI in PBS, harvested, fixed and immediately analyzed by flow cytometry.
(§1) To analyze uptake of the oligodeoxynucleotides or dextran-10K (macropinocytic marker) by flow cytometry, 2×10^5 cells in fresh supplemented culture medium (2.5 ml) were plated into 6-well plates for 18 h. After complete adhesion, the cells were incubated with 5′-FAM tagged oligodeoxynucleotides or Alexa Fluor 488 tagged dextran-10K and incubated as indicated in the Description of the Drawings. Cells were washed once with ice-cold PBS, incubated with 1 μg/ml 7-amino-actinomycin D (7-AAD) for 5 min on ice or 1 μg/ml propidium iodide (PI), and washed twice with ice-cold PBS. Cells were then treated with 0.01% trypsin/0.5 mM EDTA (300 μl) for 3 min prior addition 3 ml supplemented culture medium. The cells were then centrifuged and resuspended in 0.5 ml of 1% paraformaldehyde for analysis by flow cytometry using a FACScalibur cytometer (BD Biosciences, Mountain View, Calif.).
AS1411 causes a change in cancer cell morphology that is characterized by vacuolization, irregular nuclei, and swollen cells (Xu et al., 2001, J. Biol. Chem., 276:43221-30). […]

U937 leukemia cells = assay: Cell death mechanism (DNA laddering, immunoblotting, electron microscopy); type: cell-based
Description: (A) Trypan blue staining of U937 leukemia cells showing percentage of dead cells (trypan blue positive) over time. (B) U937 cells were untreated (Un) or treated with 1 μM AS1411 (1411) or control oligonucleotide (Ctrl) for 72 h. DNA was extracted, electrophoresed on an agarose gel and stained with ethidium bromide to probe DNA laddering. As a positive control, […] were treated with UV irradiation to induce apoptosis as previously described. […] (D) U937 cells treated as described for panel B, followed by protein extraction and immunoblotting (IB) to detect PARP cleavage and Caspase-3 activation. (E) DU145 prostate cancer cells were incubated with 10 μM of AS1411 for 24 h, or irradiated with UV (300 J/m^2 with UV Stratalinker 2400, Strategene), then cultured in fresh medium for 6 h. Assessment of cell death was carried out by flow cytometry to detect Annexin V-FITC binding and PI staining.

DU145 cells [2] = type: cell-based
Description: DU145 cells were incubated for 4 days in the presence of 10 μM AS1411 with 3-MA at the concentration indicated, and cell number was assessed by MTT assay.
It also appears unlikely that AS1411-induced cell death is due to autophagy. […] Further evidence that supports the idea that AS1411 can induce methuosis comes from the similarity between the appearance of cells treated with AS1411 and published images of glioblastoma cells undergoing Ras-induced methuosis.

DU145 cells [3] = assay: Uptake of fluorophore-labeled oligonucleotides by flow cytometry; type: cell-based
Description: (§2) FIG. 1 are graphs showing that AS1411 cell internalization is an active process. Cells were plated 18 h before uptake analysis. After incubation as described, cells were washed with ice-cold PBS, incubated with 1 μg/ml 7-AAD, harvested and resuspended in 1% paraformaldehyde containing 2 μg/ml actinomycin D, then analyzed by flow cytometry. (Panel A) DU145 cells were incubated at 37° C. with fresh complete DMEM medium containing 10 μM FL-AS1411 (black line) or 10 μM FL-CRO (gray line) for the time indicated. (Panel B) DU145 cells were incubated for 2 h at 37° C. in complete or serum-free DMEM medium containing 10 μM FL-AS1411, or 10 μM FL-CRO, or no oligonucleotide. (Panel C) Various cell lines were incubated with 10 μM FL-AS1411 (black outline histogram), 10 μM FL-CRO (gray outline histogram) or without DNA (solid gray histogram) at 37° C. or 4° C. for 2 h. All experiments were repeated at least three times. Data are mean of three independent samples; bars, SE; *(p<0.05).
(§3) FIG. 2 are graphs showing that AS1411 is internalized by different endocytic mechanisms in DU145 cancer cells and in non-malignant Hs27 cells. DU145 or Hs27 cells were plated 18 h before uptake analysis. Cells were pre-treated as described with inhibitor (gray histogram) or the corresponding vehicle control (black histogram) before addition of 10 μM FL-AS1411 and incubation at 37° C. for 2 h. After incubation, cells were harvested and analyzed by flow cytometry. Pre-treatment conditions were at 37° C. with: (Panel A) 5 μM Cytochalasin D for 30 min; (Panel B) 80 μM Dynasore for 30 min; or (Panel C) 3 mM amiloride for 1 h. All experiments were repeated at least three times and representative data are shown. Solid gray histograms represent background autofluorescence of unstained cells.
DU145 cells were transfected for 48 h without siRNA (mock, M), or with 30 nM of one of three different nucleolin siRNAs (NCL1, NCL2, NCL3) or a control siRNA (scramble, S), or contransfected with 10 nM of each nucleolin siRNAs (mix). (Panel A) Cells were lysed and total cell lyses were analyzed by Western blotting using the antibodies shown. (Panel B) Cell-surface proteins from intact transfected DU145 cells were labeled covalently with membrane-impermeable biotinylating agent. Cells were lysed, then biotinylated plasma membrane proteins were captured with streptavidin-agarose beads and analyzed by blotting with anti-nucleolin antibody (upper panel). After stripping, the membrane was reprobed with antibodies for a plasma membrane marker (anti-pan Cadherin) and a nuclear marker (anti-histone 3) to confirm the fractionation. Total lysate (Lys) was used as control. (Panel C) The medium of transfected cells was replaced by fresh complete DMEM medium containing no oligonucleotide (gray dashed histogram) or 10 μM FL-CRO (gray solid line histogram) or 10 μM FL-AS1411 (black solid line histogram) and incubated at 37° C. for 2 h. After incubation, cells were harvested and analyzed by flow cytometry.
DU145 cells were plated 18 hr before uptake analysis. Cell medium was changed with fresh complete DMEM medium containing different concentrations of FL-AS1411 (black line) or FL-CRO (gray line), and incubated at 37° C. for 2 hrs. After incubation, cells were harvested and analyzed by flow cytometry.
FIG. 9 are graphs showing the effects of inhibitors on various endocytic pathways. DU145 or Hs27 cells were plated 18 hr before uptake analysis. (Panel A) DU145 cells were pre-treated with dynamin inhibitor, […] Dynasore (black histogram) or DMSO (gray histogram) for 30 min at 37° C. After pre-treatment, cells were treated with […] transferrin conjugated with Alexa Fluor 488 for 30 min at 37° C. (Panel B) DU145 and Hs27 cells were pre-treated with 3 mM amiloride (black histogram) or vehicle (serum-free medium, gray histogram) for 1 h at 37° C. After pre-treatment, FL-CRO was added at a concentration of 10 μM and incubated at 37° C. for 2 h. After incubation, cells were harvested and analyzed by FACS. […]

Hs27 cells = assay: as above; type: cell-based, human
Description: as §2, §3
FIG. 9 are graphs showing the effects of inhibitors on various endocytic pathways. DU145 or Hs27 cells were plated 18 hr before uptake analysis. (Panel A) DU145 cells were pre-treated with dynamin inhibitor, […] Dynasore (black histogram) or DMSO (gray histogram) for 30 min at 37° C. After pre-treatment, cells were treated with […] transferrin conjugated with Alexa Fluor 488 for 30 min at 37° C. (Panel B) DU145 and Hs27 cells were pre-treated with 3 mM amiloride (black histogram) or vehicle (serum-free medium, gray histogram) for 1 h at 37° C. After pre-treatment, FL-CRO was added at a concentration of 10 μM and incubated at 37° C. for 2 h. After incubation, cells were harvested and analyzed by FACS. Gray solid histogram represents unstained cells.
To analyze uptake of the oligodeoxynucleotides or dextran-10K (macropinocytic marker) by flow cytometry, 2×10^5 cells in fresh supplemented culture medium (2.5 ml) were plated into 6-well plates for 18 h. […]

DU145 [4] = assay: Uptake of AS1411 by macropinocytosis (MP); type: cell-based; details: 3 mM amiloride for 1 h, then 10 μM FL-AS1411 2 h
Description: as §3
as §1, with “Cells were then treated with 0.01% trypsin/0.5 mM EDTA (300 μl) for 3 min prior addition 3 ml supplemented culture medium. The cells were then centrifuged and resuspended in 0.5 ml of 1% paraformaldehyde for analysis by flow cytometry using a FACScalibur cytometer (BD Biosciences, Mountain View, Calif.).” left out

MCF7 = assay: Uptake of AS1411 by macropinocytosis (MP); type: cell-based; details: amiloride treatment, MCF7 cells
Excerpt: (§4) There was little effect of amiloride treatment on uptake of FL-CRO in either DU145 cancer cells or non-malignant Hs27 cells (FIG. 9B). […] These studies also confirmed the previous results that there was higher overall uptake of FL-AS1411 in Hs27 cells than in DU145 cells.
(§5) It has recently been discovered that AS1411 can stimulate macropinocytosis (MP) in cancer cells and this finding was verified by several different methods and in multiple cancer cell lines (Table 1).

MDA-MB-231 = assay: Uptake of AS1411 by macropinocytosis (MP); type: cell-based; details: amiloride treatment, MDA-MB-231 cells
Excerpt: as §4, §5

[5] = 5 μM cytochalasin D for 30 min, then 10 μM FL-AS1411 2 h
[6] = 3 mM amiloride for 1 h, then 10 μM FL-CRO 2 h

5′-d(TTTCCTCCTCCTCCTTCTCCTCCTCCTCC) (DNA TTTCCTCCTCCTCCTTCTCCTCCTCCTCC; unmodified DNA) [tCRO, reference compound]
uptake of the macropinocytic marker, dextran, after treatment (DU145 [1]): No changes in dextran uptake

NC(=O)c1cccc(N)c1 [3-aminobenzamide]
effect of pre-incubation on AS1411-induced cell death (U937 leukemia cells): did not inhibit AS1411-induced cell death

Cn1cnc(N)c2ncnc1-2 [3-methyladenine]
toxicity of the inhibitor alone (DU145 cells [2]): some toxicity by itself
effect on AS1411 activity (DU145 cells [2]; 4 days, 10 μM AS1411): did not inhibit AS1411 activity

C=C1[C@@H](C)[C@H]2[C@H](Cc3ccccc3)NC(=O)[C@]23[C@H](OC(C)=O)/C=C/[C@@](C)(O)C(=O)[C@@H](C)C/C=C/[C@H]3[C@@H]1O [Cytocholasin D, Cytochalasin D, reference compound]
effect of pre-treatment on FL-AS1411 uptake (DU145 cells [3]; [5]): decrease in FL-AS1411 uptake
effect of pre-treatment on FL-AS1411 uptake (Hs27 cells; [5]): decrease in FL-AS1411 uptake

N=C(N)NC(=O)c1nc(Cl)c(N)nc1N [amiloride, reference compound]
effect of treatment on uptake of FL-CRO (DU145 cells [3]; [6]): little effect
effect of pre-treatment on FL-AS1411 uptake (DU145 [4]): reduction in FL-AS1411 uptake
effect of treatment on AS1411 uptake (MCF7): affected the AS1411 uptake
effect of treatment on AS1411 uptake (MDA-MB-231): affected the AS1411 uptake
effect of treatment on uptake of FL-CRO (Hs27 cells; [6]): little effect

COC(=O)CC[C@H](NC(=O)[C@H](CC(=O)OC)NC(=O)OCc1ccccc1)C(=O)N[C@H](C(=O)N[C@@H](CC(=O)OC)C(=O)CF)C(C)C [zDEVD-fmk]
effect of pre-incubation on AS1411-induced cell death (U937 leukemia cells): did not inhibit AS1411-induced cell death

CC[C@H](C)[C@H](NC(=O)OCc1ccccc1)C(=O)N[C@@H](CCC(=O)OC)C(=O)N[C@H](C(=O)N[C@@H](CC(=O)OC)C(=O)CF)[C@@H](C)O [zIETD-fmk] (Cbz-IE(OMe)TD(OMe)-CH2F)
effect of pre-incubation on AS1411-induced cell death (U937 leukemia cells): did not inhibit AS1411-induced cell death

COC(=O)CC[C@H](NC(=O)[C@H](CC(C)C)NC(=O)OCc1ccccc1)C(=O)N[C@@H](Cc1cnc[nH]1)C(=O)N[C@@H](CC(=O)OC)C(=O)CF [zLEHD-fmk] (Cbz-LE(OMe)HD(OMe)-CH2F)
effect of pre-incubation on AS1411-induced cell death (U937 leukemia cells): did not inhibit AS1411-induced cell death

COC(=O)C[C@H](NC(=O)[C@H](C)NC(=O)[C@@H](NC(=O)OCc1ccccc1)C(C)C)C(=O)CF [zVAD-fmk] (Cbz-Val-Ala-Asp(OMe)-CH2F)
effect of pre-incubation on AS1411-induced cell death (U937 leukemia cells): did not inhibit AS1411-induced cell death
